Experimental findings from US20260337245A1, “POLYPEPTIDE OR ANALOG THEREOF AND USE THEREOF” (Shenzhen Bay Laboratory, priority 2024, published 2026) are described below.

One data set deals with T1, AMY3R (Homo sapiens, UniProt P30988).
T1 construct: expressed in transfected cells
T1 sequence (P30988 25-474): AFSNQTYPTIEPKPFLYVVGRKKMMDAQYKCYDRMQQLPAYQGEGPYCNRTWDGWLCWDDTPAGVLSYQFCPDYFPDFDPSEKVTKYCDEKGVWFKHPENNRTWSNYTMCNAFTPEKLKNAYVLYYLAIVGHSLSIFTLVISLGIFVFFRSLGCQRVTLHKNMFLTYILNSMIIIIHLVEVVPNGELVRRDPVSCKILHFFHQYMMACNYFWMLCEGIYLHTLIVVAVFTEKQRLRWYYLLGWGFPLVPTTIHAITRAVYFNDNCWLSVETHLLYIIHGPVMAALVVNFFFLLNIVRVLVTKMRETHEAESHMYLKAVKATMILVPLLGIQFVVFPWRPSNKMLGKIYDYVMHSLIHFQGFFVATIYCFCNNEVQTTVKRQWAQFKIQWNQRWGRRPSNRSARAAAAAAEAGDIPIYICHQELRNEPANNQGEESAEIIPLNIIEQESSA
T1 sequence (O60896 24-148 partner): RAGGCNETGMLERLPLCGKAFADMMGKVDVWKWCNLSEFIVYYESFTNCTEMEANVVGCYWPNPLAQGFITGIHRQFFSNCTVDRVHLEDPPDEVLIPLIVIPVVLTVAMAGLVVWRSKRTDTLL
In words: HTRF cAMP assay, AMY3R. In kind it is cell-based. As to conditions: HEK293/pGM-CREB-L-Luc/AMY3R pool, read-out: IC50 of receptor AMY3R. The text has this: (§1) 2. The polypeptide derivatives prepared in Example 1 and Example 2 of the present disclosure can bind to the target AMYR and CTR receptors on the cell membrane, activate the receptors and release cAMP. Therefore, the activity of the analyte can be determined by using an HTRF (homogeneous time-resolved fluorescence) method and using a cAMP detection kit. The specific steps were as follows:
(§2) A stable transfected cell line of HEK293/pGM-CREB-L-Luc/AMY3R pool and HEK293/pGM-CREB-L-Luc/CTR pool was constructed. The polypeptide derivatives (i.e., AMY-001 to AMY-041) prepared in Examples 1 and 2 were subjected to 5-fold serial dilution from a maximum of 1000 nM to prepare a dilution series containing 8 to 11 concentration gradients. Cagrilintide and sCT were selected as positive controls for testing, and a dilution series was prepared according to the same method for testing. The test cell lines were selected and treated with cAMP-specific trypsin for digestion, and then suspended with 3 mL of serum-free DMEM medium by pipetting, and the cells were counted. 5 μL of IBMX (prepared with serum-free DMEM medium, 0.5 mM) and test cells (5 μL/7500 cells/well) were sequentially added to a 384-well plate, incubated under the conditions of 37° C., 5% CO2 for 30 minutes, then added with cAMP-d2 (5 μL, 1×) and Anti-cAMP-Cryptate (5 μL, 1×) and placed at room temperature for 1 hour. A HTRF value was determined by a chemiluminescence microplate reader, and the results were recorded. An activation curve was plotted using GraphPad Prism software to calculate an IC50 value of each polypeptide derivative. […] The IC50 values of some polypeptides were exemplarily shown in this example, see Table 3, FIG. 2 and FIG. 3 for details.

The next data set addresses T2, CTR (Homo sapiens, UniProt P30988).
T2 construct: expressed in transfected cells
T2 sequence (P30988 25-474): T1 sequence (P30988 25-474)
In words: HTRF cAMP assay, CTR. In kind it is cell-based. As to conditions: HEK293/pGM-CREB-L-Luc/CTR pool, read-out: IC50 of receptor CTR.
Description: as §1, §2

Data set [1] in a line: Pharmacokinetic evaluation in SD rats. In kind it is in vivo, male SD rat. As to conditions: plasma, rat. The method, then: 1. The pharmacokinetic behaviors of the polypeptide derivatives (i.e., AMY-001 to AMY-041) prepared in Example 1 and Example 2 in SD rats were tested.
Each polypeptide derivative (i.e., AMY-001 to AMY-041) was administered to male SD rat as a single injection via subcutaneous injection (SC, 3 mg/kg, with PBS as a medicament vehicle, a concentration of 1.5 mg/mL, and an administration volume of 2 mL) and intravenous injection (IV, 1 mg/kg, with PBS as a medicament vehicle, a concentration of 0.5 mg/mL, and an administration volume of 2 mL), respectively. After administration, whole blood samples were respectively collected from the jugular vein or other appropriate veins at selected time points. 0.2 mL of blood was collected and placed in a labeled EDTA-K2 anticoagulant tube. The tube was gently inverted up and down to ensure thorough mixing of the anticoagulant (EDTA-K2) with the blood, immediately placed on wet ice and centrifuged as soon as possible to separate plasma, and the centrifugation conditions were set to 4° C., 6800 g, and 6 minutes. Plasma samples were stored in a refrigerator at a temperature not exceeding −20° C. until subsequent analysis.
Under yellow light conditions in an ice water bath, (1) except for the blank sample, 300 μL of precipitant containing internal standard was added to a 96-well plate containing 20 μL of a standard curve sample, a quality control sample or an unknown sample; 300 μL of acetonitrile was added to the blank sample; (2) vortex mixing; (3) centrifugation; (4) 150 μL of supernatant was taken and added into a new 96-well plate, and then mixed well with 150 μL of ultrapure water; and (5) The above samples were quantitatively analyzed by using LC-MS analysis. Gradient elution was performed on a XB—C18 chromatographic column (2.1*100 mm, 3 μm), with the mobile phase as follows: mobile phase A=0.1% (volume percentage, v/v) formic acid-water; and mobile phase B=acetonitrile. Pharmacokinetic parameters were calculated using Phoenix WinNonlin software.

Starred links: 1 amine or outer side, 2 acyl side, 3 side chain; linkers in the order of their positions; H or OH if unused. Positions of bridges follow the written chain, without caps; N, C: chain ends. Non-standard residues stand in square brackets, D forms with d. Residues, ends and D or L forms follow the SMILES beside them. X1 = O=C(O)CCCCCCCCCCCCCCCCCCC(=O)N[C@@H](CCCCNC(=O)COCCOCCNC(=O)COCCOCCNC(=O)CCC(=O)N(CCNC(=O)C[*:1])CCNC(=O)C[*:2])C(=O)O; NMeR = CN[C@@H](CCCNC(=N)N)C(=O)O; Hyp = O=C(O)[C@@H]1C[C@@H](O)CN1; hArg = N=C(N)NCCCC[C@H](N)C(=O)O; αMeK = C[C@](N)(CCCCN)C(=O)O; Aib = CC(C)(N)C(=O)O

As to `CC(=O)N[C@@H](C)C(=O)N[C@@H](CO)C(=O)N[C@@H](Cc1c[nH]cn1)C(=O)N[C@@H](CC(C)C)C(=O)N[C@@H](CO)C(=O)N[C@H](C(=O)N[C@@H](C)C(=O)N[C@H]1CSCC(=O)NCCN(C(=O)CCC(=O)NCCOCCOCC(=O)NCCOCCOCC(=O)NCCCC[C@H](NC(=O)CCCCCCCCCCCCCCCCCCC(=O)O)C(=O)O)CCNC(=O)CSC[C@@H](C(=O)N[C@@H](CC(C)C)C(=O)N[C@@H](Cc2c[nH]cn2)C(=O)N[C@@](C)(CCCCN)C(=O)N[C@@H](CC(C)C)C(=O)NC(C)(C)C(=O)N[C@@H](CC(=O)O)C(=O)N[C@@H](Cc2ccc(O)cc2)C(=O)N2CCC[C@H]2C(=O)N(C)[C@@H](CCCNC(=N)N)C(=O)N[C@H](C(=O)N[C@@H](CC(=O)O)C(=O)N[C@H](C(=O)NCC(=O)N[C@@H](C)C(=O)NCC(=O)N[C@@H](CO)C(=O)N2C[C@H](O)C[C@H]2C(N)=O)C(C)C)[C@@H](C)O)NC(=O)[C@H](C)NC(=O)[C@H](CO)NC(=O)[C@H](CC(C)C)NC(=O)[C@H](CCCNC(=N)N)NC(=O)CNC(=O)[C@H](CC(C)C)NC1=O)[C@@H](C)O` [AMY-011, Ac-ASHLSTACLGRLSACLH-(αMeK)-L-Aib-DYP-(N-Me-R)-TDVGAGS-Hyp-NH2] (Ac-ASHLSTACLGRLSACLH[αMeK]L[Aib]DYP[NMeR]TDVGAGS[Hyp]-NH2; linker 8-15 via X1), the EC50 at AMY3R was 0.0048 nM. Moreover, the EC50 on CTR amounted to 0.0122 nM. In data set [1] (1 mg/kg, IV (1 mpk)), the AUC(0-inf) came out at 143 µg·h/mL, the clearance was 0.117 mL/min/kg and the half-life is 15.5 h. In data set [1] (3 mg/kg, SC (3 mpk)), the AUC(0-inf) came out at 283 µg·h/mL, the Cmax turned out to be 6830 ng/mL, the Tmax was determined as 8 h and the bioavailability is 65.9%. The molecule further had a half-life in data set [1] (3 mg/kg, SC (3 mpk)) of 15.6 h.
For the molecule `CC(=O)N[C@@H](C)C(=O)N[C@@H](CO)C(=O)N[C@@H](Cc1c[nH]cn1)C(=O)N[C@@H](CC(C)C)C(=O)N[C@@H](CO)C(=O)N[C@H](C(=O)N[C@H]1CSCC(=O)NCCN(C(=O)CCC(=O)NCCOCCOCC(=O)NCCOCCOCC(=O)NCCCC[C@H](NC(=O)CCCCCCCCCCCCCCCCCCC(=O)O)C(=O)O)CCNC(=O)CSC[C@@H](C(=O)N[C@@H](CCC(=O)O)C(=O)N[C@@H](CC(C)C)C(=O)N[C@@H](Cc2c[nH]cn2)C(=O)N[C@@H](CCCCN)C(=O)N[C@@H](CC(C)C)C(=O)NC(C)(C)C(=O)N[C@@H](CC(=O)O)C(=O)N[C@@H](Cc2ccc(O)cc2)C(=O)N2CCC[C@H]2C(=O)N[C@@H](CCCNC(=N)N)C(=O)N[C@H](C(=O)N[C@@H](CC(=O)O)C(=O)N[C@H](C(=O)NCC(=O)N[C@@H](C)C(=O)NCC(=O)N[C@@H](CO)C(=O)N2CCC[C@H]2C(N)=O)C(C)C)[C@@H](C)O)NC(=O)[C@H](CO)NC(=O)[C@H](CC(C)C)NC(=O)[C@H](CCCNC(=N)N)NC(=O)CNC(=O)[C@H](CC(C)C)NC(=O)[C@H](C(C)C)NC1=O)[C@@H](C)O` [AMY-002, Ac ASHLSTCVLGRLSCELHKL-Aib-DYPRTDVGAGSP-NH2] (Ac-ASHLSTCVLGRLSCELHKL[Aib]DYPRTDVGAGSP-NH2; linker 7-14 via X1), the results for the EC50 on AMY3R and at CTR were 0.0671 nM and 0.0906 nM, respectively.
Regarding `CC(=O)N[C@@H](C)C(=O)N[C@@H](CO)C(=O)N[C@@H](Cc1c[nH]cn1)C(=O)N[C@@H](CC(C)C)C(=O)N[C@@H](CO)C(=O)N[C@H](C(=O)N[C@@H](C)C(=O)N[C@H]1CSCC(=O)NCCN(C(=O)CCC(=O)NCCOCCOCC(=O)NCCOCCOCC(=O)NCCCC[C@H](NC(=O)CCCCCCCCCCCCCCCCCCC(=O)O)C(=O)O)CCNC(=O)CSC[C@@H](C(=O)N[C@@H](CC(C)C)C(=O)N[C@@H](Cc2c[nH]cn2)C(=O)N[C@@](C)(CCCCN)C(=O)N[C@@H](CC(C)C)C(=O)NC(C)(C)C(=O)N[C@@H](CC(=O)O)C(=O)N[C@@H](Cc2ccc(O)cc2)C(=O)N2CCC[C@H]2C(=O)N(C)[C@@H](CCCNC(=N)N)C(=O)N[C@H](C(=O)N[C@@H](CC(=O)O)C(=O)N[C@H](C(=O)NCC(=O)N[C@@H](C)C(=O)NCC(=O)N[C@@H](CO)C(=O)N2CCC[C@H]2C(N)=O)C(C)C)[C@@H](C)O)NC(=O)[C@H](C)NC(=O)[C@H](CO)NC(=O)[C@H](CC(C)C)NC(=O)[C@H](CCCCNC(=N)N)NC(=O)CNC(=O)[C@H](CC(C)C)NC1=O)[C@@H](C)O` [AMY-012, Ac-ASHLSTACLG-homoR-LSACLH-(αMeK)-L-Aib-DYP-(N-Me-R)-TDVGAGSP-NH2] (Ac-ASHLSTACLG[hArg]LSACLH[αMeK]L[Aib]DYP[NMeR]TDVGAGSP-NH2; linker 8-15 via X1), the EC50 was 0.0133 nM at AMY3R and 0.0357 nM at CTR.
On to `CC(=O)N[C@@H](C)C(=O)N[C@@H](CO)C(=O)N[C@@H](Cc1c[nH]cn1)C(=O)N[C@@H](CC(C)C)C(=O)N[C@@H](CO)C(=O)N[C@H](C(=O)N[C@@H](C)C(=O)N[C@H](C(=O)N[C@@H](CC(C)C)C(=O)N[C@H]1CSCC(=O)NCCN(C(=O)CCC(=O)NCCOCCOCC(=O)NCCOCCOCC(=O)NCCCC[C@H](NC(=O)CCCCCCCCCCCCCCCCCCC(=O)O)C(=O)O)CCNC(=O)CSC[C@@H](C(=O)N[C@@H](CCCCN)C(=O)N[C@@H](CC(C)C)C(=O)NC(C)(C)C(=O)N[C@@H](CC(=O)O)C(=O)N[C@@H](Cc2ccc(O)cc2)C(=O)N2CCC[C@H]2C(=O)N[C@@H](CCCNC(=N)N)C(=O)N[C@H](C(=O)N[C@@H](CC(=O)O)C(=O)N[C@H](C(=O)NCC(=O)N[C@@H](C)C(=O)NCC(=O)N[C@@H](CO)C(=O)N2CCC[C@H]2C(N)=O)C(C)C)[C@@H](C)O)NC(=O)[C@H](CC(C)C)NC(=O)[C@H](CCC(=O)O)NC(=O)[C@H](C)NC(=O)[C@H](CO)NC(=O)[C@H](CC(C)C)NC(=O)[C@H](CCCNC(=N)N)NC1=O)C(C)C)[C@@H](C)O` [AMY-005, Ac-ASHLSTAVLCRLSAELCKL-Aib-DYPRTDVGAGSP-NH2] (Ac-ASHLSTAVLCRLSAELCKL[Aib]DYPRTDVGAGSP-NH2; linker 10-17 via X1), for which the EC50 on AMY3R was determined as 0.198 nM; at CTR, 0.303 nM.
